Source: patent publication US20230078511A1, “METHODS OF USING MOMELOTINIB TO TREAT JOINT INFLAMMATION” (Sierra Oncology, Inc., priority 2020, published 2023)

How the values were obtained:
PG-PS-immunized RA rats = experiment: PG-PS rat rheumatoid arthritis (RA) model, 3 or 21 days of treatment (Example 3); format: in vivo, Lewis rats
Method: Female Lewis rats were immunized with 15 mg/kg Streptococcal Peptidoglycan-Polysaccharide (PG-PS) administered intraperitoneally (IP) to generate a rat model of rheumatoid arthritis. Rats were used to assess the efficacy of the dual JAK1/2 and ACVR1 inhibitor momelotinib (MMB) in vivo. Two weeks following rheumatoid arthritis induction by immunization with PG-PS, rats were treated with daily oral doses of MMB (5, 10, 25 mg/kg) or vehicle for 3 or 21 days.
Statistical significance was determined with one-way ANOVA for RA animals with Bonferroni post-hoc tests (N=5-10 per group, * p < 0.05, ** p < 0.01).
Cytokine gene expression was profiled by Real-Time PCR. For immunophenotyping of blood leukocytes and granulocyte counts were obtained. Anemia was assessed by determination of blood hemoglobin and serum, spleen and liver iron levels.

[1] = target: T1, Activin Receptor Type 1 (ACVR1) (Homo sapiens, UniProt Q04771); conditions: background statement; cited from earlier work
T1 sequence (Q04771 21-509): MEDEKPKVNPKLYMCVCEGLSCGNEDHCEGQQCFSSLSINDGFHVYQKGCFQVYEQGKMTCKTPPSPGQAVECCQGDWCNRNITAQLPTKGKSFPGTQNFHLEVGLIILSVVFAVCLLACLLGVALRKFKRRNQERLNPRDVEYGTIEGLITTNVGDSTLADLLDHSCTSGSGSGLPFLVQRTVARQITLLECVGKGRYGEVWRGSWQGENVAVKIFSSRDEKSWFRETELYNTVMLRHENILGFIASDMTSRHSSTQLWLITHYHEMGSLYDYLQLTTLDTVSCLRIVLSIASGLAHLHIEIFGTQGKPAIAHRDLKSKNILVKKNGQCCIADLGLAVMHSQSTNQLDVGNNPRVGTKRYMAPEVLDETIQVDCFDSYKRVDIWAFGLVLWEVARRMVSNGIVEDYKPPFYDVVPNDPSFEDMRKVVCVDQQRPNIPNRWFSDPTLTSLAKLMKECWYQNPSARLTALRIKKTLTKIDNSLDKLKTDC

rat model = conditions: background statement; cited from earlier work
myelofibrosis patients = myelofibrosis patients treated with MMB; background statement; cited from earlier work
CAIA BALB/C mice = experiment: CAIA murine rheumatoid arthritis model in BALB/C mice (Example 4); format: in vivo; conditions: for mean rear paw rheumatoid arthritis score / mean rear paw thickness / mean total animal rheumatoid arthritis score: beginning on day 6, vs vehicle, MMB 50 mg/kg daily or 30 mg/kg twice daily oral, etanercept 10 mg/kg daily IP
Method: BALB/C mice were immunized with 2 mg anti-collagen II antibodies administered intraperitoneally (IP) on day 0 followed by intraperitoneal injection of 100 µg of lipopolysaccharide (LPS) on day 3. Beginning at RA induction, mice were treated orally for the entirety of the study either once daily vehicle, MMB (50 mg/kg), twice daily with MMB (30 mg/kg), or daily intraperitoneally, etanercept (ETA) (10 mg/kg). Consecutive assessment of rheumatoid arthritis was performed by animal and rear paw scoring, and rear paw thickness measurements.

PG-PS-immunized rats = experiment: PG-PS induced rat model of chronic arthritis (Example 1); format: in vivo, Lewis rats
Method: Six-week old female Lewis rats are immunized with 15 mg/kg Streptococcal Peptidoglycan-Polysaccharide (PG-PS) administered intraperitoneally (IP). Treatments with anti-inflammatory drugs of interest are commenced two weeks later and continue for 7 days (short-term) to 21 days (long-term). Disease progression is monitored as described below (see Joint Pathology, Clinical Scoring and Bio-Imaging). Blood samples are collected once weekly and processed as described below. At the conclusion of experiments, blood, serum, and organ samples are collected and processed as described herein.
Spleen and lymph node cells are isolated by mechanical pressing of the organ through a 100 µm cell strainer (Corning) in PBS. For isolation of rat synovial infiltrates, hind limbs are freed of skin, bones, and major tendons. The remaining tissue is minced and digested with 0.16 U Liberase TM, 10 µg/mL DNase I, and 60 U hyaluronidase I in RPMI at 37° C. for 1 hour. Blood is collected into heparinized tubes and used directly for blood count determination. For immunophenotyping of blood leukocytes, blood samples are depleted from red blood cells by lysis with ACK buffer (150 mM NH4Cl, 10 mM KHCO3, 0.1 mM EDTA).
Flow cytometry staining is performed as described in Parajuli et al., Int. J. Cancer 126:896-908, 2010, which is hereby incorporated by reference in its entirety. Measurements are performed with a Cytoflex S device (Beckman Coulter) and FACS Symphony (Beckton Dickinson), enabling detection of 13 and 52 fluorescence parameters, respectively, as well as automated absolute cell count determination.
For intracellular cytokine/transcription factor staining, rat and murine T cells are re-stimulated for 4 hours with phorbol 12,13-dibutyrate (PDBu) and ionomycin (50 ng/mL and 500 ng/mL, respectively) in the presence of Golgi Stop (BD Bioscience). In sum, five multicolor antibody panels per species (rat, mouse) are established (blood leukocytes, organ leukocytes, intracellular staining for Th cell subtypes, blood reticulocytes, bone marrow erythropoiesis). Data analysis is performed using FlowJo Software.
(§1) Regular monitoring of arthritis progression in all animal models is accomplished by measuring hind limb ankle joint diameters with a Vernier’s caliper (volume = D × d^2Π/6, D and d are ankle diameters measured in perpendicular axes, D > d). In murine arthritis models, animals are additionally clinically scored with a system assessing swelling and mobility of each animal’s limb, as described in Inglis et al., Arthritis Res. Ther. 8:R113, 2007, which is hereby incorporated by reference in its entirety. Each paw of an experimental animal is assessed separately as follows: 0 - normal, 1 - slight swelling or erythrema, 2 - pronounced swelling, 3 - joint rigidity. The paw scores for each animal are summed giving a maximum of 12 points per mouse. Scoring is performed by a rater blinded to the group assignment.
A rat model of chronic arthritis (PG-PS induced) was used to assess the efficacy of the dual JAK1/2 and ACVR1 inhibitor momelotinib (MMB) in vivo. Two weeks following arthritis induction by immunization with PG-PS, rats were treated with daily oral doses of MMB (5, 10, and 25 mg/kg) or vehicle for 3 weeks.
Consecutive assessment of arthritis was performed by joint thickness measurements and paw scoring. Following 3 weeks of treatment, synovial immune cell infiltration and T cell subset differentiation were quantified by multi-color flow cytometry. Cytokine gene expression was profiled by Real-Time PCR. Anemia was assessed by determination of blood hemoglobin and serum, spleen and liver iron levels.

CAIA DBA/1 mice = experiment: Collagen antibody-induced arthritis (CAIA) in DBA/1 mice (Example 2); format: in vivo
From the text: as §1, with “Vernier's” for “Vernier’s”, “animal's” for “animal’s”, “Inglis” left out, “8:[…],” for “8:R113,”, “[…],” for “erythrema,”, “assignment. In order to evaluate efficacy of MMB treatment in a second arthritic animal model, arthritis was induced in DBA/1 mice by intravenous injection of collagen antibody cocktail on day 0 followed by intraperitoneal injection of lipopolysaccharide (LPS) on day 3. […] Comparator controls dexamethasone (1 mg/kg) or the TNF-α inhibitor, etanercept (10 mg/kg) were administered daily by intraperitoneal injection beginning on day 0.” for “assignment.”

[2] = 21 days of treatment, compared to healthy and RA rats
[3] = 21 days of treatment, flow cytometry
[4] = all tested doses (5, 10, 25 mg/kg), vs vehicle in PG-PS animals
[5] = beginning at the lowest tested dose (5 mg/kg)
[6] = daily oral, 3 weeks, flow cytometry
[7] = daily oral, 3 weeks, hind limb ankle joints, flow cytometry
[8] = beginning on day 5, vs vehicle, MMB 50 mg/kg daily or 30 mg/kg twice daily oral, etanercept 10 mg/kg daily IP

N#CCNC(=O)c1ccc(-c2ccnc(Nc3ccc(N4CCOCC4)cc3)n2)cc1 [MMB, N-(cyanomethyl)-4-(2-(4-morpholinophenylamino)pyrimidin-4-yl)benzamide]
blood granulocyte counts (PG-PS-immunized RA rats; 3 days of treatment): significantly decreases | blood leukocyte counts (PG-PS-immunized RA rats; 3 days of treatment): significantly decreases | spleen and liver cytokine expression (PG-PS-immunized RA rats; 3 days of treatment, Real-Time PCR): significantly decreases | cartilage damage (PG-PS-immunized RA rats; 21 days of treatment, H&E-stained hind limb joint sections): alleviates | anemia (PG-PS-immunized RA rats; [2]): corrects | hepcidin (PG-PS-immunized RA rats; [2]): decreases | hind limb joint swelling (PG-PS-immunized RA rats; 21 days of treatment, figure shows 10 mg/kg): reduces | CD4+ T cell infiltration in hind-limb synovial tissue (PG-PS-immunized RA rats; [3]): significantly reduces | CD8+ T cell infiltration in hind-limb synovial tissue (PG-PS-immunized RA rats; [3]): significantly reduces | differentiation of splenic Th17 cells (PG-PS-immunized RA rats; [3]): inhibits | infiltration of macrophages in hind limb synovia (PG-PS-immunized RA rats; [3]): reduces | infiltration of neutrophils in hind limb synovia (PG-PS-immunized RA rats; [3]): reduces | regulatory Treg cells (PG-PS-immunized RA rats; [3]): without affecting | splenic Th1 cells (PG-PS-immunized RA rats; [3]): without affecting | iron availability (PG-PS-immunized RA rats; rat PG-PS model): improves | inhibition of ACVR1 [1]: potent inhibition | anemia (rat model): correct anemia | anemia benefit (myelofibrosis patients): clinically reproduced | rheumatoid arthritis scoring versus the TNF-α inhibitor etanercept (CAIA BALB/C mice; CAIA model, BALB/C mice): non-inferiority | mean rear paw rheumatoid arthritis score (CAIA BALB/C mice): significant reduction | mean rear paw thickness (CAIA BALB/C mice): significant reduction | mean total animal rheumatoid arthritis score (CAIA BALB/C mice): significant reduction | anti-arthritic effectiveness compared with etanercept (CAIA BALB/C mice; murine CAIA RA model): at least equally effective | joint swelling (PG-PS-immunized rats; 25 mg/kg): complete remission | splenic granulocytes (percentage of splenic CD45+ leukocytes) (PG-PS-immunized rats; 25 mg/kg for 3 weeks, flow cytometry): significant reduction | mean sum diameter of hind limb joints (PG-PS-immunized rats; 10 and 25 mg/kg daily oral, 3 weeks, caliper on last day of treatment, vs vehicle): significant reduction | reduction of inflammatory granulocyte infiltration in synovial tissue (PG-PS-immunized rats; [4]): more than 60% | reduction of macrophage infiltration in synovial tissue (PG-PS-immunized rats; [4]): more than 60% | arthritogenic Th17 cell differentiation (PG-PS-immunized rats; [5]): effectively decreased | overall CD4+ T cells in the synovia (PG-PS-immunized rats; [5]): effectively decreased | swelling and cartilage destruction in arthritic hind limb joints (PG-PS-immunized rats; daily oral, 3 weeks, H&E sections at 10 mg/kg): substantially inhibits | granulocytes in synovial tissue of hind limb ankle joint pairs (PG-PS-immunized rats; [6]): significantly reduced | inflammatory CD11b/c+ macrophages in synovial tissue (PG-PS-immunized rats; [6]): significantly reduced | monocytes in synovial tissue (PG-PS-immunized rats; [6]): significantly reduced | splenic Th1 cells (PG-PS-immunized rats; [6]): reduced | splenic Th17 cells (PG-PS-immunized rats; [6]): significant reduction | splenic Treg cells (PG-PS-immunized rats; [6]): not significantly altered | synovial CD4+ T cells (PG-PS-immunized rats; [7]): significant reductions | synovial CD8+ T cells (PG-PS-immunized rats; [7]): significant reductions | CD4+ T cells in the arthritic ankle synovia (PG-PS-immunized rats; lowest dose tested, 5 mg/kg): Reduction | RA-associated anemia (PG-PS-immunized rats; rats): substantial improvement | circulating hepcidin levels (PG-PS-immunized rats; rats): reduced | systemic iron (PG-PS-immunized rats; rats): mobilized | mean rear paw thickness (CAIA DBA/1 mice; 20 mg/kg daily oral, days 7 and 12, vs vehicle): reduction | arthritis scoring versus the TNF-α inhibitor etanercept (CAIA DBA/1 mice; CAIA model, DBA/1 mice): non-inferiority | mean rear paw arthritis score (CAIA DBA/1 mice; [8]): significant reduction | mean rear paw thickness (CAIA DBA/1 mice; [8]): significant reduction | mean total arthritis score (CAIA DBA/1 mice; [8]): significant reduction

etanercept [reference compound]
mean rear paw rheumatoid arthritis score (CAIA BALB/C mice): significant reduction | mean rear paw thickness (CAIA BALB/C mice): significant reduction | mean total animal rheumatoid arthritis score (CAIA BALB/C mice): significant reduction | mean rear paw arthritis score (CAIA DBA/1 mice; [8]): significant reduction | mean rear paw thickness (CAIA DBA/1 mice; [8]): significant reduction | mean total arthritis score (CAIA DBA/1 mice; [8]): significant reduction
